The source of these data is ChEMBL document CHEMBL5214985, “meta-Ureidophenoxy-1,2,3-triazole hybrid as a novel scaffold for promising HepG2 hepatocellular carcinoma inhibitors: Synthesis, biological evaluation and molecular docking studies” (Bioorg Med Chem, 2022).

By IC50 is commonly meant the concentration at which inhibition is half-maximal.

A short description of data set [1]: Cytotoxicity against human MRC5 cells assessed as inhibition of cell viability incubated for 72 hrs by MTT assay. The class given is toxicity, cell-based.
Data set [2] concerns HepG2. As to the kind of experiment: Potency index, ratio of Sorafenib IC50 to test compound IC50 for anticancer activity against human HepG2 cells assessed as inhibition of cell viability incubated for 72 hrs by MTT assay. It is filed as functional.
The subject of data set [3] is HepG2. As to the kind of experiment: Anticancer activity against human HepG2 cells assessed as inhibition of cell viability incubated for 72 hrs by MTT assay. The class given is functional, cell-based. The following applies: HepG2, 72 h. For orientation: Tetrazolium assays rely on reduction of a dye to a coloured formazan, in cell work by metabolically active cells.

Data set [4] in a line: Selectivity index, ratio of IC50 for cytotoxicity against human MRC5 cells to IC50 for anticancer activity against human HepG2 cells. The following applies: MRC5 cells versus HepG2 cells, read-out: Ratio IC50. The class given is toxicity, cell-based.
Data set [5] deals with HepG2. Description: Induction of apoptosis in human HepG2 cells at 5 uM incubated for 72 hrs by Annexin V-FITC/PI staining based flow cytometry. It is filed as functional, cell-based.

Structures are written as SMILES. Calls of active or inactive are those of the source. The calls are words filed in the database; no cut-off is given here.

Take `O=C(Nc1cccc(OCc2cn(-c3ccccc3)nn2)c1)Nc1ccc(Cl)c(C(F)(F)F)c1`: in data set [1], the IC50 at 72 h stood at 18400 nM. In addition, the “Ratio IC50” value in data set [2] was found to be 2.8. For the same compound, the IC50 in data set [3] was found to be 1780 nM. Besides, in data set [4], the selectivity ratio turned out to be 10.3.
As to `O=C(Nc1cccc(OCc2cn(-c3cccc(Cl)c3)nn2)c1)Nc1ccc(Cl)c(C(F)(F)F)c1`, the IC50 in data set [3] was 2020 nM.
Still for that read-out and setting: then `O=C(Nc1cccc(OCc2cn(-c3cccc(C(F)(F)F)c3)nn2)c1)Nc1ccc(Cl)c(C(F)(F)F)c1`, with 1270 nM.
Consider `COc1cccc(-n2cc(COc3cccc(NC(=O)Nc4ccc(Cl)c(C(F)(F)F)c4)c3)nn2)c1`, for which the IC50 at 72 h in data set [1] was determined as 8570 nM. In data set [3], the IC50 was found to be 1310 nM. Besides, the selectivity ratio in data set [4] came to 6.55.
As for `CCc1cccc(-n2cc(COc3cccc(NC(=O)Nc4ccc(Cl)c(C(F)(F)F)c4)c3)nn2)c1`, in data set [3], the IC50 was 37900 nM.
With `CC(C)c1cccc(-n2cc(COc3cccc(NC(=O)Nc4ccc(Cl)c(C(F)(F)F)c4)c3)nn2)c1`, the IC50 at 72 h in data set [1] came to 21400 nM. Besides, the IC50 in data set [3] came out at 3250 nM. Moreover, in data set [4], the selectivity ratio was found to be 6.58.
With `O=C(Nc1cccc(OCc2cn(-c3cccc(Br)c3)nn2)c1)Nc1ccc(Cl)c(C(F)(F)F)c1`, the IC50 at 72 h in data set [1] came to 11900 nM. Further, the “Ratio IC50” value in data set [2] is recorded as 5. Also, the result in data set [5] was Active. For the same compound, the IC50 in data set [3] worked out at 1040 nM. Besides, the selectivity ratio in data set [4] was found to be 11.5.
On to `O=C(Nc1cccc(OCc2cn(-c3ccccc3F)nn2)c1)Nc1ccc(Cl)c(C(F)(F)F)c1`, for which, in data set [3], the 50% inhibitory concentration (IC50) was determined as 1520 nM.
Same read-out and setting: to `CC(C)c1ccccc1-n1cc(COc2cccc(NC(=O)Nc3ccc(Cl)c(C(F)(F)F)c3)c2)nn1` belongs 1900 nM; to `O=C(Nc1cccc(OCc2cn(-c3ccc(C(F)(F)F)cc3)nn2)c1)Nc1ccc(Cl)c(C(F)(F)F)c1`, 1800 nM.
With `O=C(Nc1cccc(OCc2cn(-c3ccc(Br)cc3)nn2)c1)Nc1ccc(Cl)c(C(F)(F)F)c1`, the IC50 at 72 h in data set [1] was determined as 11000 nM. The 50% inhibitory concentration (IC50) in data set [3] was found to be 2730 nM. In addition, in data set [4], the selectivity ratio was found to be 4.03.
As for `CC(C)c1ccc(-n2cc(COc3cccc(NC(=O)Nc4ccc(Cl)c(C(F)(F)F)c4)c3)nn2)cc1`, the half-maximal inhibitory concentration (IC50) in data set [3] was 2470 nM.
On the same count and under the same terms, to `O=C(Nc1cccc(OCc2cn(-c3ccccc3Cl)nn2)c1)Nc1ccc(Cl)c(C(F)(F)F)c1` belongs 1960 nM.
Same read-out and setting: then `N#Cc1ccc(-n2cc(COc3cccc(NC(=O)Nc4ccc(Cl)c(C(F)(F)F)c4)c3)nn2)cc1`, with 2980 nM.
With `N#Cc1ccccc1-n1cc(COc2cccc(NC(=O)Nc3ccc(Cl)c(C(F)(F)F)c3)c2)nn1`, in data set [1], the IC50 at 72 h is 17500 nM. Also, the IC50 in data set [3] is 1970 nM. Further, the selectivity ratio in data set [4] stood at 8.89.
The like results for `O=C(Nc1cccc(OCc2cn(-c3ccccc3I)nn2)c1)Nc1ccc(Cl)c(C(F)(F)F)c1` were, in that order, 21900 nM, 2870 nM and 7.61.
Turning to `CCc1ccccc1-n1cc(COc2cccc(NC(=O)Nc3ccc(Cl)c(C(F)(F)F)c3)c2)nn1`, the half-inhibitory concentration (IC50) in data set [3] is 3530 nM.
Take `Cc1ccc(-n2cc(COc3cccc(NC(=O)Nc4ccc(Cl)c(C(F)(F)F)c4)c3)nn2)cc1`: the IC50 in data set [3] came to 5430 nM.
As for `COc1ccccc1-n1cc(COc2cccc(NC(=O)Nc3ccc(Cl)c(C(F)(F)F)c3)c2)nn1`, the 50% inhibitory concentration (IC50) in data set [3] was determined as 11300 nM.
Same read-out and setting: to `Cc1cccc(-n2cc(COc3cccc(NC(=O)Nc4ccc(Cl)c(C(F)(F)F)c4)c3)nn2)c1` belongs 7270 nM.
On to `O=C(Nc1cccc(OCc2cn(-c3cccc(F)c3)nn2)c1)Nc1ccc(Cl)c(C(F)(F)F)c1`, for which the IC50 in data set [3] was 2120 nM.
Consider `O=C(Nc1cccc(OCc2cn(-c3ccccc3C(F)(F)F)nn2)c1)Nc1ccc(Cl)c(C(F)(F)F)c1`, for which, in data set [1], the concentration for half-maximal inhibition (IC50) at 72 h came out at 8230 nM. Also, the IC50 in data set [3] amounted to 2320 nM. In data set [4], the selectivity ratio worked out at 3.55.
As for `CNC(=O)c1cc(Oc2ccc(NC(=O)Nc3ccc(Cl)c(C(F)(F)F)c3)cc2)ccn1` [SORAFENIB], the IC50 at 72 h in data set [1] is 11100 nM. Also, the result in data set [5] was Active.
Turning to `Cc1ccccc1-n1cc(COc2cccc(NC(=O)Nc3ccc(Cl)c(C(F)(F)F)c3)c2)nn1`, the half-maximal inhibitory concentration (IC50) in data set [3] is 3440 nM.
Take `O=C(Nc1cccc(OCc2cn(-c3ccc(F)cc3)nn2)c1)Nc1ccc(Cl)c(C(F)(F)F)c1`: in data set [1], the concentration for half-maximal inhibition (IC50) at 72 h turned out to be 4740 nM. Also, in data set [3], the IC50 is 1350 nM. For the same compound, the selectivity ratio in data set [4] was determined as 3.52.
For `COc1ccc(-n2cc(COc3cccc(NC(=O)Nc4ccc(Cl)c(C(F)(F)F)c4)c3)nn2)cc1`, the IC50 in data set [3] is 4680 nM.
Regarding `N#Cc1cccc(-n2cc(COc3cccc(NC(=O)Nc4ccc(Cl)c(C(F)(F)F)c4)c3)nn2)c1`, the IC50 at 72 h in data set [1] came out at 2960 nM. The IC50 in data set [3] is 2760 nM. For the same compound, in data set [4], the selectivity ratio was found to be 1.07.
As to `O=C(Nc1cccc(OCc2cn(-c3ccccc3Br)nn2)c1)Nc1ccc(Cl)c(C(F)(F)F)c1`, in data set [3], the IC50 was found to be 2810 nM.
Turning to `O=C(Nc1cccc(OCc2cn(-c3ccc(I)cc3)nn2)c1)Nc1ccc(Cl)c(C(F)(F)F)c1`, the IC50 at 72 h in data set [1] was found to be 6840 nM. Moreover, the IC50 in data set [3] stood at 2690 nM. Further, the selectivity ratio in data set [4] worked out at 2.55.
For `O=C(Nc1cccc(OCc2cn(-c3ccc(Cl)cc3)nn2)c1)Nc1ccc(Cl)c(C(F)(F)F)c1`, in data set [3], the concentration for half-maximal inhibition (IC50) was 2490 nM.
Still for that read-out and setting: then `O=C(Nc1cccc(OCc2cn(-c3cccc(I)c3)nn2)c1)Nc1ccc(Cl)c(C(F)(F)F)c1`, with 4780 nM.
The same measure, in the same setting: then `CCc1ccc(-n2cc(COc3cccc(NC(=O)Nc4ccc(Cl)c(C(F)(F)F)c4)c3)nn2)cc1`, with 1950 nM.
